Assay [1] relates to NCI-H1975. Nature of the assay: Cytotoxicity against human NCI-H1975 cells assessed as cell growth inhibition by CCK8 assay.
In assay [2] the test system is HepG2. Nature of the assay: Cytotoxicity against human HepG2 cells assessed as cell growth inhibition by CCK8 assay.
In assay [3] the test system is Staphylococcus aureus. Nature of the assay: Antibacterial activity against Staphylococcus aureus ATCC 6538 assessed as bacterial growth inhibition by broth microdilution method. It counts as functional. (In broth dilution the organism is exposed to a series of concentrations in liquid medium.)
The test system of assay [4] is Staphylococcus aureus. Nature of the assay: Antibacterial activity against methicillin-resistant Staphylococcus aureus SC41993 assessed as bacterial growth inhibition by broth microdilution method. The assay is classed as functional.
Assay [5] has as its system Escherichia coli. Nature of the assay: Antibacterial activity against Escherichia coli ATCC 25922 assessed as bacterial growth inhibition by broth microdilution method. It counts as functional.
Assay [6] relates to Bacillus subtilis. Nature of the assay: Antibacterial activity against Bacillus subtilis BS01 assessed as bacterial growth inhibition by broth microdilution method. It counts as functional.
Assay [7] relates to Streptococcus agalactiae. Put plainly: Antibacterial activity against Streptococcus agalactiae ATCC 13813 assessed as bacterial growth inhibition by broth microdilution method. It counts as functional.
For assay [8], the target named is T1, Tyrosine-protein phosphatase non-receptor type 1 (Homo sapiens, UniProt P18031).
T1 sequence (P18031 whole entry): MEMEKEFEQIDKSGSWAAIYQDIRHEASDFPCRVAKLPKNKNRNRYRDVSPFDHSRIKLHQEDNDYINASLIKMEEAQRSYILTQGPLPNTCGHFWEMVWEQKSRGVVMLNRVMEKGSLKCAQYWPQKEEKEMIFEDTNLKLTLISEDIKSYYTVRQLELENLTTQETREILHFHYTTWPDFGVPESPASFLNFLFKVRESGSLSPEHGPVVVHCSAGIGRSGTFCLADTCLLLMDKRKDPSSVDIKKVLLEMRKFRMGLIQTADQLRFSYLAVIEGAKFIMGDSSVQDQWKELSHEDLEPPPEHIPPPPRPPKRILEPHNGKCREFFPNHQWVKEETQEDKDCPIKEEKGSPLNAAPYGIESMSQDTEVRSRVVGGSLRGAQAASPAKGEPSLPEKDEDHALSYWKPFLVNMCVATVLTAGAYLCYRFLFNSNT
Put plainly: Inhibition of human PTP1B.

Assay [9] concerns the target T2, M-phase inducer phosphatase 2 (Homo sapiens, UniProt P30305).
T2 sequence (P30305 whole entry): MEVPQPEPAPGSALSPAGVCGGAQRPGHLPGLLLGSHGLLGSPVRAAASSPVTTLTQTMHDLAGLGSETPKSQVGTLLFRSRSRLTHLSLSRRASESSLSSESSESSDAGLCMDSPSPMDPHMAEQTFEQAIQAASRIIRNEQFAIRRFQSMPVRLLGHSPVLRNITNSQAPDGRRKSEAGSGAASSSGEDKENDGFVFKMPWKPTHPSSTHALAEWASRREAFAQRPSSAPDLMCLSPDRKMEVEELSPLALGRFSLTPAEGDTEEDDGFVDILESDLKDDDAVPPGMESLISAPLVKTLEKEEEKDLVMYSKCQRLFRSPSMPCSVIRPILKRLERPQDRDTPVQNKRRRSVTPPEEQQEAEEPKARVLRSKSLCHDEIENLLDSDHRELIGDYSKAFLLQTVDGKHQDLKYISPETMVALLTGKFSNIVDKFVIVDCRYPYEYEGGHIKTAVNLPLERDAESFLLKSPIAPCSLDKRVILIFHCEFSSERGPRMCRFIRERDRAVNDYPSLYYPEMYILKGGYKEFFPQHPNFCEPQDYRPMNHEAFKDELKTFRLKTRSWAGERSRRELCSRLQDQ
Put plainly: Inhibition of human CDC25B.

Assay [10] concerns the target Receptor-type tyrosine-protein phosphatase F (Homo sapiens, UniProt P10586). Nature of the assay: Inhibition of human LAR.
Assay [11] concerns the target Dual specificity protein phosphatase 3 (Homo sapiens, UniProt P51452). Put plainly: Inhibition of human VHR.
For assay [12], the system named is Bacillus amyloliquefaciens. Nature of the assay: Antibacterial activity against Bacillus amyloliquefaciens GDMCC 60233 assessed as bacterial growth inhibition by broth microdilution method. The assay is classed as functional.
Assay [13] has as its system Streptococcus iniae. Put plainly: Antibacterial activity against Streptococcus iniae SC41992 assessed as bacterial growth inhibition by broth microdilution method. It counts as functional.
Assay [14] concerns the target Receptor-type tyrosine-protein phosphatase S (Homo sapiens, UniProt Q13332). Nature of the assay: Inhibition of human PTPsigma.

In brackets after ≈: the same amount, converted by molar mass. Bounds are passed on as bounds.

From ChEMBL document CHEMBL5385931, “Microascones, Decahydrofluorene-Class Alkaloids from the Marine-Derived Fungus Microascus sp. SCSIO 41821” (J Nat Prod, 2024) come the findings set out here.

Usually IC50 stands for the concentration at which inhibition is half-maximal. As a reminder, the MIC is the lowest concentration that inhibits growth of the organism.

Chain of Receptor-type tyrosine-protein phosphatase F (P10586 whole entry): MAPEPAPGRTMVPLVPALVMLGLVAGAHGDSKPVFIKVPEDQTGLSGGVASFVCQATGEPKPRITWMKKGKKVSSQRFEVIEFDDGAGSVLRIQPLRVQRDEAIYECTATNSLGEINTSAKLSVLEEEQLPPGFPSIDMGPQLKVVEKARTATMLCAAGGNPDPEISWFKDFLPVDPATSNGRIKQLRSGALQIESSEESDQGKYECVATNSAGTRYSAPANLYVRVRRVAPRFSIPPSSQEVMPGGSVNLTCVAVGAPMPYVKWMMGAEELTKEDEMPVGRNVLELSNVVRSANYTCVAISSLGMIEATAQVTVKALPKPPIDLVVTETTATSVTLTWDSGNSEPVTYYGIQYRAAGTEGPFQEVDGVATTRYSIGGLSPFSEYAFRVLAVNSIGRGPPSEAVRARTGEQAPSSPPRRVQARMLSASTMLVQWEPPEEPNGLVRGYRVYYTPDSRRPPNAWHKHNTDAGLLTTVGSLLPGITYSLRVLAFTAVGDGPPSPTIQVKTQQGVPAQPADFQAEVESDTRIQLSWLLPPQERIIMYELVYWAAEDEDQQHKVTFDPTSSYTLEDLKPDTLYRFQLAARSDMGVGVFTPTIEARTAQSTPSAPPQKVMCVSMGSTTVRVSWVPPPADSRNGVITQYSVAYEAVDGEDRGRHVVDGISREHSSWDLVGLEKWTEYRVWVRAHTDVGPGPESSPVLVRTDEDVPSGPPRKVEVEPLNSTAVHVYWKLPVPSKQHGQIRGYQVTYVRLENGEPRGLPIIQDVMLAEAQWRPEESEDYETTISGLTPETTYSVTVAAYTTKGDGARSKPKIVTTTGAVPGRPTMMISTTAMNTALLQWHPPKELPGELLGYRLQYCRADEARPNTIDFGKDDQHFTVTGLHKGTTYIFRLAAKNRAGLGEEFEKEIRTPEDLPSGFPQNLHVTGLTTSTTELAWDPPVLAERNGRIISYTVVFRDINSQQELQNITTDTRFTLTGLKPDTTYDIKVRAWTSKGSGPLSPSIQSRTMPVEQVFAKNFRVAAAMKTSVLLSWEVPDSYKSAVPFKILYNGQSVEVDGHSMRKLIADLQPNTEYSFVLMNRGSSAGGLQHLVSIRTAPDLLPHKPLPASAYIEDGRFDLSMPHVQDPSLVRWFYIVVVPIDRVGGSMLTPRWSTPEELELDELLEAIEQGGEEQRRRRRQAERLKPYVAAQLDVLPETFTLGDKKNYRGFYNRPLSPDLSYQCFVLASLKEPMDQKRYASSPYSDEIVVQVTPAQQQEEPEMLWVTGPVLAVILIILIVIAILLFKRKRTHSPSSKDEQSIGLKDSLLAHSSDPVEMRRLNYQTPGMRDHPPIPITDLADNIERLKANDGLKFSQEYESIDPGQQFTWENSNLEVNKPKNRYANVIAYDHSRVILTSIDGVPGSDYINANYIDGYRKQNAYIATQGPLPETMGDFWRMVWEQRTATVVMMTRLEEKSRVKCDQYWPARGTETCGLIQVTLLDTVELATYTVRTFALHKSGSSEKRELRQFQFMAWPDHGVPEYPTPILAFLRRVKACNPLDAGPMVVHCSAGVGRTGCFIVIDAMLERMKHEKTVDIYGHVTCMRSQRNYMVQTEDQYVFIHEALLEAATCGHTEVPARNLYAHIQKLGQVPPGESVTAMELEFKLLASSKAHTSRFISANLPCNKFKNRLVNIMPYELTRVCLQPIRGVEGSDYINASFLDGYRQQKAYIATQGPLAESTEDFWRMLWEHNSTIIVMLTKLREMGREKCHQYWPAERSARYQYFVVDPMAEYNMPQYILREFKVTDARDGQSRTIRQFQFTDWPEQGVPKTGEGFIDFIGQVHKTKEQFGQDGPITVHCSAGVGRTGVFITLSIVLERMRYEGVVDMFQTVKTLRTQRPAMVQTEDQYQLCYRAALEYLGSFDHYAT
Chain of Dual specificity protein phosphatase 3 (P51452 whole entry): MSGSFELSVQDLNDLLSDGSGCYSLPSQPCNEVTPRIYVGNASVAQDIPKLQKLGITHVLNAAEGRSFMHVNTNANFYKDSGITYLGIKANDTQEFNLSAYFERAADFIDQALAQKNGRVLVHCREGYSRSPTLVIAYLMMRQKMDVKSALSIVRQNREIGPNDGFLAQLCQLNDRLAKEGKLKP
Chain of Receptor-type tyrosine-protein phosphatase S (Q13332 whole entry): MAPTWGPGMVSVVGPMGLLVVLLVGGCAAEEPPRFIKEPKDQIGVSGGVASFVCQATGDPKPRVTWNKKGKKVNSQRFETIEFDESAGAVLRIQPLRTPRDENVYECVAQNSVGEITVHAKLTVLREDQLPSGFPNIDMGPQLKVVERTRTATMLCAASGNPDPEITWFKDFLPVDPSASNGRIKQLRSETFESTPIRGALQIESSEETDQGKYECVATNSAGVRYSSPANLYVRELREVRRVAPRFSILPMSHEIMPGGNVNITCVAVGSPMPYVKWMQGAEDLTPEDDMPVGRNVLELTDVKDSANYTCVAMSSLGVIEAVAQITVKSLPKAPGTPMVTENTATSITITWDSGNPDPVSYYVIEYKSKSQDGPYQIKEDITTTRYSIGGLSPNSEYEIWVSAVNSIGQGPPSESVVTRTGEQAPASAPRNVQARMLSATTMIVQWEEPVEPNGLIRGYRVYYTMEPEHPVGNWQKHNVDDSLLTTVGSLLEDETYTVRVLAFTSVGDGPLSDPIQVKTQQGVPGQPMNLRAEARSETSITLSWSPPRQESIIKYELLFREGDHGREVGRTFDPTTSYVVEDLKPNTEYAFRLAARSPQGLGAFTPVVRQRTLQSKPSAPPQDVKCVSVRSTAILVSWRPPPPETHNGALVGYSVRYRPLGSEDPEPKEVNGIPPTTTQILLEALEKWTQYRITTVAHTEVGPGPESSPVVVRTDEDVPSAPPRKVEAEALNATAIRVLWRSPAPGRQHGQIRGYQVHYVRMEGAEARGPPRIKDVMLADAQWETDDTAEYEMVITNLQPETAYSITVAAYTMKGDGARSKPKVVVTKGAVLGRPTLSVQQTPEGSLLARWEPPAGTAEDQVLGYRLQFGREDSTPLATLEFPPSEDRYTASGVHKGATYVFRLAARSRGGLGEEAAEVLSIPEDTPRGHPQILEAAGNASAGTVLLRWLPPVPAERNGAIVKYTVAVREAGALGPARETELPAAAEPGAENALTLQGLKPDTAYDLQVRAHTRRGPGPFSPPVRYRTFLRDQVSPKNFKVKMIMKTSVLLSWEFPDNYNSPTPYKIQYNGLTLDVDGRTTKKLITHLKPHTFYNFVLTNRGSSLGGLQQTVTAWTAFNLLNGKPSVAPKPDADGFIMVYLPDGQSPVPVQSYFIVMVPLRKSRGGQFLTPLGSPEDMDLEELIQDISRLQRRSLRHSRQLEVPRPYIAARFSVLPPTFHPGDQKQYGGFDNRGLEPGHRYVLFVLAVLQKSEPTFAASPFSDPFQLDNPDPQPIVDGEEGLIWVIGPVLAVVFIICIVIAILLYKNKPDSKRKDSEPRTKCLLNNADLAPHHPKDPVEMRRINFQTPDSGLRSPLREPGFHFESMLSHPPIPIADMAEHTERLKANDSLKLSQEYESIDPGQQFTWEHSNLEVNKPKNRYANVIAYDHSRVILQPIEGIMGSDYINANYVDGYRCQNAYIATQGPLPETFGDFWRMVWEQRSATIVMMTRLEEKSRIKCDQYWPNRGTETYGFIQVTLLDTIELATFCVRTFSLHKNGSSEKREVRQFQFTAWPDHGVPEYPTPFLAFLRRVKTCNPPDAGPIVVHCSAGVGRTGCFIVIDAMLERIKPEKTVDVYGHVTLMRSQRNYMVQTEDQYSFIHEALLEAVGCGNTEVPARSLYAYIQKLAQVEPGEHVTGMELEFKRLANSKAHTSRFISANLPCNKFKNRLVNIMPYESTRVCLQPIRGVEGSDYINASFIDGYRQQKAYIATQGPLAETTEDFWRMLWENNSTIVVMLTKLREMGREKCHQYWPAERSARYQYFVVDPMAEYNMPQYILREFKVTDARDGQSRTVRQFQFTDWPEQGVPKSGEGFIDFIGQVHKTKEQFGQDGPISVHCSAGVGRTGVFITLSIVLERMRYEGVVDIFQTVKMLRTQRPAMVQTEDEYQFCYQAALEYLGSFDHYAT

Consider `C=C/C(C)=C/[C@]1(C)C=C(C)[C@H]2[C@@H]3C[C@H](C)C[C@H](C)[C@H]3[C@H]3Oc4ccc(cc4)C[C@@H]4C(=O)NC(=O)[C@H]4C(=O)[C@@H]1[C@@H]32`, for which the IC50 is 67 µM in assay [1] and > 80 µM in assay [2]. In addition, the MIC is > 100 µg/mL in [3]; > 100 µg/mL in [4]; 100 µg/mL (≈ 189 µM) in assay [5]; 100 µg/mL (≈ 189 µM) in assay [6]; 50 µg/mL (≈ 94.7 µM) in assay [7].

Regarding `CC1=C2[C@@H](C)[C@@]3(C)O[C@H]3[C@]2(C)[C@H]2C(=O)[C@]34O[C@H]3[C@](O)(Cc3ccc(cc3)O[C@@H]3[C@H]5[C@@H](C[C@H](C)C[C@@H]5C)[C@H]1[C@H]32)NC4=O`, the concentration for half-maximal inhibition (IC50) in assay [8] is 42 µM; in [9], > 200 µM; in [10], > 200 µM; in assay [11] it was > 200 µM; in assay [1], 33 µM; in assay [2] it was 67 µM. Further, the MIC in assay [3] is 13 µg/mL (≈ 23.2 µM); in assay [4], > 100 µg/mL; in [5] it was 100 µg/mL (≈ 179 µM); in assay [6], 100 µg/mL (≈ 179 µM); in assay [7], 100 µg/mL (≈ 179 µM); in assay [12], 100 µg/mL (≈ 179 µM). Further, the MIC in assay [13] came out at 100 µg/mL (≈ 179 µM).

On to `CC1=C[C@@]2(C)C(=C(C)[C@H]3[C@@H]4C[C@H](CO)C[C@H](C)[C@H]4[C@H]4Oc5ccc(cc5)C[C@@H]5C(=O)NC(=O)[C@H]5C(=O)[C@H]2[C@@H]43)[C@H]1C`, for which the IC50 in [8] was > 200 µM; in assay [9], > 200 µM; in [10] it was > 200 µM; in assay [14], > 200 µM; in [11] it was > 200 µM; in assay [1] it was 43 µM. Further, the IC50 in [2] was > 80 µM. For the same compound, the minimal inhibitory concentration (MIC) in assay [3] and in [4] was > 100 µg/mL in each case.

Turning to `CC1=C[C@@]2(C)[C@@H]3C(=O)[C@@]45C(=O)N[C@@](O)(Cc6ccc(cc6)O[C@@H]6[C@H]7[C@@H](C[C@H](CO)C[C@@H]7C)[C@H]1[C@H]63)[C@H]4CC=C(C)[C@@H]25`, the IC50 in [8] is > 200 µM; in assay [9], > 200 µM; in assay [10], > 200 µM; in assay [14], > 200 µM; in assay [11] it was > 200 µM; in assay [1], 58 µM. In assay [2], the IC50 was > 80 µM. The MIC in [3] is > 100 µg/mL; in assay [4], > 100 µg/mL; in assay [5] it was 100 µg/mL (≈ 184 µM); in assay [6], 100 µg/mL (≈ 184 µM); in assay [7], > 100 µg/mL; in assay [12] it was > 100 µg/mL. In assay [13], the MIC is 100 µg/mL (≈ 184 µM).

Take `C=C/C(C)=C\[C@]1(C)C=C(C)[C@H]2[C@@H]3C[C@H](C)C[C@H](C)[C@H]3[C@H]3Oc4ccc(cc4)C[C@@H]4C(=O)NC(=O)[C@H]4C(=O)[C@@H]1[C@@H]32`: the IC50 in assay [1] was 35 µM; in assay [2] it was 73 µM. Moreover, the MIC in assay [3] is > 100 µg/mL; in assay [4], > 100 µg/mL; in assay [5], 100 µg/mL (≈ 189 µM); in assay [6] it was 100 µg/mL (≈ 189 µM); in assay [7], 50 µg/mL (≈ 94.7 µM).
